Our source for the IC50 values is patent US9394329B2, “Glucopyranosyl derivatives and their uses in medicine” (Sunshine Lake Pharma Co., Ltd., priority 2013, dated 2016).

The target in one assay is T1, SGLT-2 (Homo sapiens, UniProt P31639).
T1 construct: expressed in transfected cells
T1 sequence (P31639 1-672): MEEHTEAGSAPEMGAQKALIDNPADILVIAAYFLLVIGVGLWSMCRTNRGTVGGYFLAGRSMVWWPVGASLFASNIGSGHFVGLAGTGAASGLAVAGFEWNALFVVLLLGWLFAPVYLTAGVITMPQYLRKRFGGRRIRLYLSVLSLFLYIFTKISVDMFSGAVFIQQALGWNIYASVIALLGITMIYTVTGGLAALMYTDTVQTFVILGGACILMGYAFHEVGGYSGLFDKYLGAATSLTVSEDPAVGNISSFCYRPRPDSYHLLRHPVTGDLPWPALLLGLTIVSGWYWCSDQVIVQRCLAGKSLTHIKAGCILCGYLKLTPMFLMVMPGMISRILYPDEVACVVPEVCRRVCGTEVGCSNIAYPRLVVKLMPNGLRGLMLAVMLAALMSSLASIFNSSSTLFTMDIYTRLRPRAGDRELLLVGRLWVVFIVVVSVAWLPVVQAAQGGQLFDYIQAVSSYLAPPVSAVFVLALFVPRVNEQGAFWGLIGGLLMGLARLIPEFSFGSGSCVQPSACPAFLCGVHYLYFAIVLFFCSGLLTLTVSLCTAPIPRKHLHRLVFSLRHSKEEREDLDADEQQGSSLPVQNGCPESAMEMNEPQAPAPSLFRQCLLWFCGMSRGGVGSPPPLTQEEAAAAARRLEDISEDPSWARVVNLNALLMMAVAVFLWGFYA
The assay is described as follows: SGLT-2 activity measurement ([14C]-AMG uptake in CHO cells expressing human SGLT2). Type of assay: cell-based. Conditions: CHO cells expressing human SGLT2, 0.5 μm [14C]-AMG, 37° C. for 1 hour. The text has this: (§1) The following methods can be used to determine the inhibitory activity of the compounds described in the invention for SGLT-1 and SGLT-2.
(§2) ^14C-AMG solution was purchased from PerkinElmer, Cat. No. NEZ080001MC.
(§3) α-Methylglucoside was purchased from Sigma, Cat. No. M9376-100G.
(§4) N-methyl-D-glucosamine was purchased from Sigma, Cat. No. M2004-100G.
(§5) Phloridzin was purchased from Sigma, Cat. No. P3449-1G.
(§6) 96-Well plate was purchased from Corning, Cat. No. 3903.
(§7) Mock-transfected FIP-in CHO cells (3×10^4 cells) and expressing human SGLT1/SGLT2 CHO cells were seeded into 96-well plates respectively. The cells were incubated for 12 hours. Each well of the 96-well plates was washed with 150 μL of sodium-free buffer once. To each well was added 50 μL of sodium-containing buffer containing test compounds having different concentrations and […] [^14C]-AMG. The incubation mixture was incubated at 37° C. for 1 hour. To each well was added 150 μL of precooled sodium-free buffer to terminate the reaction. The cell pellet was washed with sodium-free buffer three times and the residual liquid in well was removed. To each well was added 20 μL of precooled 100 mM NaOH. The 96-well plates were vibrated at 900 rpm for 5 minutes. Scintillation fluid (80 μL) was added to each well which was then vibrated at 600 rpm for 5 minutes. The amount of ^14C-AMG was quantitatively detected using liquid scintillation.

The target in a further assay is T2, SGLT-1 (Homo sapiens, UniProt P13866).
T2 construct: expressed in transfected cells
T2 sequence (P13866 1-664): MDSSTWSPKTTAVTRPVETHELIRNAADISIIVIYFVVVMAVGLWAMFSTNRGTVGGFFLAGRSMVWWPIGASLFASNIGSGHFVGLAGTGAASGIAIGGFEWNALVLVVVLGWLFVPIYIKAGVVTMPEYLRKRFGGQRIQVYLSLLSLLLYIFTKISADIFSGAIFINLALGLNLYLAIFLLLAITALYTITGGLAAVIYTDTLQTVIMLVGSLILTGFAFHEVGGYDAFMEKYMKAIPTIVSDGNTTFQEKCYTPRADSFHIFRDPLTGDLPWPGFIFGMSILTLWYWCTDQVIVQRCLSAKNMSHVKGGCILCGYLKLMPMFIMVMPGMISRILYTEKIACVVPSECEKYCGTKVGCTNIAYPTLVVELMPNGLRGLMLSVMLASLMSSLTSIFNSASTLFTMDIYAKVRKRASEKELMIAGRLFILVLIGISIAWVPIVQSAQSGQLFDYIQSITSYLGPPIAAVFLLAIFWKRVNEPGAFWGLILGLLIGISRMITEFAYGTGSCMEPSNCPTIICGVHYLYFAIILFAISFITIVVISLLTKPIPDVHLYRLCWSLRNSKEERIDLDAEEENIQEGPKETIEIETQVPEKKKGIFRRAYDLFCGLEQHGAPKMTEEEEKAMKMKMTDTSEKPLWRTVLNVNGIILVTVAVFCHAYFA
Briefly: SGLT-1 activity measurement ([14C]-AMG uptake in CHO cells expressing human SGLT1). It counts as cell-based. The note with it: CHO cells expressing human SGLT1, 0.5 μm [14C]-AMG, 37° C. for 1 hour.
Source text: as §1, §2, §3, §4, §5, §6, §7

For orientation: IC50 means the point on the concentration scale where inhibition reaches its midpoint. A high value points to weaker potency. As for `CCOc1ccc(Cc2cc([C@]34OC[C@](C(C)(C)O)(O3)[C@@H](O)[C@H](O)[C@H]4O)ccc2Cl)cc1F` [Example 20, (1S,2S,3S,4R,5S)-5-[4-Chloro-3-[(4-ethoxy-3-fluoro-phenyl)methyl]phenyl]-1-(1-hydroxy-1-methyl-ethyl)-6,8-dioxabicyclo[3.2.1]octane-2,3,4-triol], the IC50 against SGLT-2 was determined as 0.85 nM; against SGLT-1 it was 170 nM.

Take `CC(O)[C@@]12CO[C@@](c3ccc(Cl)c(Cc4ccc(OC(F)(F)F)cc4)c3)(O1)[C@H](O)[C@@H](O)[C@@H]2O` (stereo partly drawn) [Example 15, (1R,2S,3S,4R,5S)-5-[4-chloro-3-[[4-(trifluoromethoxy)phenyl]methyl]phenyl]-1-(1-hydroxyethyl)-6,8-dioxabicyclo[3.2.1]octane-2,3,4-triol]: the results for the IC50 on SGLT-2 and against SGLT-1 were 1.96 nM and 290 nM, respectively.

`COc1ccc(Cc2cc([C@]34OC[C@](C(C)O)(O3)[C@@H](O)[C@H](O)[C@H]4O)ccc2Cl)c(F)c1F` (stereo partly drawn) [Example 21, (1R,2S,3S,4R,5S)-5-[4-Chloro-3-[(2,3-difluoro-4-methoxy-phenyl)methyl]phenyl]-1-(1-hydroxyethyl)-6,8-dioxabicyclo[3.2.1]octane-2,3,4-triol]: the IC50 at SGLT-2 came out at 0.81 nM; on SGLT-1 it was 120 nM.

In the case of `COc1ccc(Cc2cc([C@]34OC[C@](C(C)(C)O)(O3)[C@@H](O)[C@H](O)[C@H]4O)ccc2Cl)c(F)c1F` [Example 22, (1S,2S,3S,4R,5S)-5-[4-Chloro-3-[(2,3-difluoro-4-methoxy-phenyl)methyl]phenyl]-1-(1-hydroxy-1-methyl-ethyl)-6,8-dioxabicyclo[3.2.1]octane-2,3,4-triol], the results for the IC50 against SGLT-2 and on SGLT-1 were 1.84 nM and 1040 nM, respectively.

For the compound `CCOc1ccc(Cc2cc([C@]34OC[C@](C(C)O)(O3)[C@@H](O)[C@H](O)[C@H]4O)ccc2Cl)cc1F` (stereo partly drawn) [Example 19, (1R,2S,3S,4R,5S)-5-[4-chloro-3-[(4-ethoxy-3-fluoro-phenyl)methyl]phenyl]-1-(1-hydroxyethyl)-6,8-dioxabicyclo[3.2.1]octane-2,3,4-triol], the IC50 turned out to be 1.27 nM against SGLT-2 and 180 nM on SGLT-1.

Regarding `C#CC(O)C12CO[C@@](c3ccc(Cl)c(Cc4ccc(OCC)cc4)c3)(O1)[C@H](O)[C@@H](O)[C@@H]2O` (stereo in doubt) [Example 4, (1S,2S,3S,4R,5S)-5-[4-Chloro-3 [(4-ethoxyphenyl)methyl]phenyl]-1-(1-hydroxyprop-2-yn-1-yl)-6,8-dioxabicyclo[3.2.1]octane-2,3,4-triol], the 50% inhibitory concentration (IC50) against SGLT-2 stood at 9.39 nM; on SGLT-1 it was 4210 nM.

Consider `CCOc1ccc(Cc2cc([C@]34OC[C@](C(C)(C)O)(O3)[C@@H](O)[C@H](O)[C@H]4O)ccc2Cl)cc1` [Example 2, (1S,2S,3S,4R,5S)-5-[4-Chloro-3-[(4-ethoxyphenyl)methyl]phenyl]-1-(2-hydroxypropan-2-yl)-6,8-dioxabicyclo[3.2.1]octane-2,3,4-triol], for which the IC50 was 1.14 nM at SGLT-2 and 110 nM against SGLT-1.

In the case of `CC(C)(O)[C@@]12CO[C@@](c3ccc(Cl)c(Cc4ccc(OCC(F)F)cc4)c3)(O1)[C@H](O)[C@@H](O)[C@@H]2O` [Example 25, (1S,2S,3S,4R,5S)-5-[4-Chloro-3-[[4-(2,2-difluoroethoxyl)phenyl]methyl]phenyl]-1-(1-hydroxy-1-methyl-ethyl)-6,8-dioxabicyclo[3.2.1]octane-2,3,4-triol], the IC50 worked out at 3.48 nM against SGLT-2 and 5560 nM against SGLT-1.

Take `CC(C)(O)[C@@]12CO[C@@](c3ccc(Cl)c(Cc4ccc(OC(F)(F)F)cc4)c3)(O1)[C@H](O)[C@@H](O)[C@@H]2O` [Example 16, (1S,2S,3S,4R,5S)-5-[4-chloro-3-[[4-(trifluoromethoxy)phenyl]methyl]phenyl]-1-(1-hydroxy-1-methyl-ethyl)-6,8-dioxabicyclo[3.2.1]octane-2,3,4-triol]: the IC50 against SGLT-2 came to 2.95 nM; against SGLT-1, 1310 nM.

For `CC(O)[C@@]12CO[C@@](c3ccc(Cl)c(Cc4ccc(OCC(F)(F)F)cc4)c3)(O1)[C@H](O)[C@@H](O)[C@@H]2O` (stereo partly drawn) [Example 17, (1R,2S,3S,4R,5S)-5-[4-Chloro-3-[[4-(2,2,2-trifluoroethoxy)phenyl]methyl]phenyl]-1-(1-hydroxyethyl)-6,8-dioxabicyclo[3.2.1]octane-2,3,4-triol], the figures for the IC50 at SGLT-2 and against SGLT-1 were 1.22 nM and 820 nM, respectively.
